Results: ChEMBL document CHEMBL1201862, “PubChem BioAssay data set” (2004)
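In this assay, cells in 96-well plates receive the compound at five concentrations for 48 hours. Endpoints are linearly interpolated between the surrounding concentrations. The concentration for 50% growth inhibition is given as GI50.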 Activity calls are given as the source filed them. No stated cut-off is given here; in the data, active = GI50 up to about 1.1 µM and inactive = higher.

Legend:
Experiment in all cases: growth of human tumour cells (NCI), 48 h
LXFL 529 = tested on: LXFL 529
EKVX = tested on: EKVX
SNB-78 = tested on: SNB-78
HOP-92 = tested on: HOP-92
UACC-257 = tested on: UACC-257
NCI-H460 = tested on: NCI-H460
SF-295 = tested on: SF-295
HCT-15 = tested on: HCT-15
CCRF-CEM = tested on: CCRF-CEM
OVCAR-8 = tested on: OVCAR-8
DMS-273 = tested on: DMS-273
SN12C = tested on: SN12C
KM12 = tested on: KM12
IGROV-1 = tested on: IGROV-1
LOX IMVI = tested on: LOX IMVI
SK-MEL-5 = tested on: SK-MEL-5
SK-OV-3 = tested on: SK-OV-3
KM-20L2 = tested on: KM-20L2
U-251 = tested on: U-251
NCI-H23 = tested on: NCI-H23
RXF 393 = tested on: RXF 393
UO-31 = tested on: UO-31
SNB-19 = tested on: SNB-19
HCC 2998 = tested on: HCC 2998
OVCAR-3 = tested on: OVCAR-3
ACHN = tested on: ACHN
DMS-114 = tested on: DMS-114
OVCAR-5 = tested on: OVCAR-5
RXF 631 = tested on: RXF 631
SW-620 = tested on: SW-620
SF-539 = tested on: SF-539
RPMI-8226 = tested on: RPMI-8226
M19-MEL = tested on: M19-MEL
K562 = tested on: K562
DLD-1 = tested on: DLD-1
OVCAR-4 = tested on: OVCAR-4
HL-60 = tested on: HL-60
UACC-62 = tested on: UACC-62
MOLT-4 = tested on: MOLT-4
A549 = tested on: A549
CAKI-1 = tested on: CAKI-1
A498 = tested on: A498
SF-268 = tested on: SF-268
HCT-116 = tested on: HCT-116
Malme-3M = tested on: Malme-3M
HOP-18 = tested on: HOP-18
XF498 = tested on: XF498
786-0 = tested on: 786-0
COLO 205 = tested on: COLO 205
HT-29 = tested on: HT-29
HOP-62 = tested on: HOP-62
M14 = tested on: M14
SK-MEL-2 = tested on: SK-MEL-2
SNB-75 = tested on: SNB-75
TK-10 = tested on: TK-10

Measured: GI50

CN1CCc2c1nc(-c1cccnc1)c1c2N(C)CC1
inactive: LXFL 529 > 100 µM | EKVX > 100 µM | SNB-78 > 100 µM | HOP-92 88.5 µM | UACC-257 > 100 µM | NCI-H460 > 100 µM | SF-295 > 100 µM | CCRF-CEM > 100 µM | OVCAR-8 > 100 µM | DMS-273 > 100 µM | SN12C > 100 µM | KM12 > 100 µM | IGROV-1 > 100 µM | LOX IMVI > 100 µM | SK-MEL-5 > 100 µM | SK-OV-3 > 100 µM | KM-20L2 97.1 µM | U-251 > 100 µM | NCI-H23 > 100 µM | RXF 393 > 100 µM | UO-31 48.8 µM | SNB-19 > 100 µM | HCC 2998 > 100 µM | OVCAR-3 65.8 µM | ACHN > 100 µM | DMS-114 > 100 µM | OVCAR-5 > 100 µM | RXF 631 > 100 µM | SW-620 > 100 µM | SF-539 > 100 µM | RPMI-8226 > 100 µM | M19-MEL > 100 µM | K562 > 100 µM | DLD-1 > 100 µM | OVCAR-4 > 100 µM | HL-60 > 100 µM | UACC-62 > 100 µM | MOLT-4 > 100 µM | A549 > 100 µM | CAKI-1 > 100 µM | A498 52 µM | SF-268 > 100 µM | HCT-116 > 100 µM | Malme-3M > 100 µM | HOP-18 60.4 µM | XF498 > 100 µM | 786-0 > 100 µM | COLO 205 > 100 µM | HT-29 95.3 µM | HOP-62 > 100 µM | M14 > 100 µM | SK-MEL-2 > 100 µM | SNB-75 > 100 µM | TK-10 > 100 µM
> 100 µM: HCT-15
